Laboratory results: paper PMC6572996, “Silver(I) Complexes of the Pharmaceutical Agents Metronidazole and 4-Hydroxymethylpyridine: Comparison of Cytotoxic Profile for Potential Clinical Application” (Molecules, 2019)

Tests used:
[1] = test system: Balb/c 3T3 cells; experiment: MTT assay (mitochondrial activity), Balb/c 3T3; format: cell-based, mouse; details: for Lowest concentration with significant (p ≤ 0.05) inhibition of mitochondrial activity (MTT): Balb/c 3T3, 72 h, vs negative control 0.1% DMSO
Procedure: (§1) Data obtained from the measurement of the optical density in these assays were transformed to percentages in relation to the control group, considered to be 100% for the MTT, NRU, and TPC assays and 0% for the LDH assay (Figure 1).
(§2) The human hepatoma cell line (HepG2) was purchased from the American Type Culture Collection (ATCC HB-8065). These cells were cultured in Minimum Essential Medium Eagle (MEME) (ATCC). The murine fibroblast cell line (Balb/c 3T3 clone A31) (gift from Department of Swine Diseases of the National Veterinary Research Institute in Pulawy) was cultured in Dulbecco’s Modified Eagle’s Medium (DMEM) (ATCC). The media were supplemented with 10% BCS (Balb/c 3T3), 10% FBS (HepG2), 1% L-glutamine, and 1% antibiotic solution. The cells were maintained in 75 cm^2 cell culture flasks (Nunc, Roskilde, Denmark) in a humidified incubator, NuAire (Plymouth, MN, USA) at 37 °C, in an atmosphere of 5% CO2. The medium was refreshed every two or three days and the cells were trypsinized by 0.25% trypsin–0.02% EDTA after reaching 70–80% confluence. Single cell suspensions were prepared and adjusted to a density of 2 × 10^5 cells/mL (HepG2) and 5 × 10^4 cells/mL (Balb/c 3T3). The cell suspension was transferred to 96-well plates (100 µL/well) and incubated for 24 h before the exposure to the study compounds.
(§3) The concentration ranges of compounds were chosen according to their solubility and their plasma level. Each compound was dissolved in DMSO. The final concentration of DMSO was 0.1% in the medium. The same final concentrations of the solvent and the 1% Trition-X 100 solution were used as the negative and positive controls, respectively. […] All compound solutions in the medium were freshly prepared and protected from light. […] The concentration range was selected on the basis of results from previous studies. Each concentration was tested in six replicates with three independent experiments. Cytotoxicity was assessed after 72 h of exposure of the cells to the compounds. The medium was not changed during the incubation time.
(§4) The metabolic activity of living cells was assessed by measuring the activity of dehydrogenases. After incubation of the cells with the compounds, a 10 μL portion of the MTT solution (5 mg/ml in PBS) was added to each well of the 96-well plates and incubated. After 3 h, the MTT solution was removed and the intracellular formazan crystals were dissolved in 100 µl DMSO. The plate was shaken for 15 min at room temperature and transferred to a microplate reader (LabSystems Multiskan RC, Thermo Fisher Scientific, Waltham, MA, USA) to measure the absorbance at 570 nm, using blanks as a reference. Cytotoxicity was expressed as a percentage of the negative control (0.1% DMSO).
(§5) The results of the tests were expressed as a mean ± SD. The experiments were performed in three independent repetitions. Statistical analysis was performed using GraphPad Prism 5 (San Diego, CA, USA). One-way analysis of variance (ANOVA) followed by Dunnett’s post-hoc test was applied. The 50% inhibition (cytotoxicity) concentrations (IC50) were derived from the dose–response curve plotted with the concentration of the compound (X-axis) vs. cell viability percent (Y-axis). The IC50 values were calculated by GraphPad Prism 5 software (San Diego, CA, USA). Statistical comparisons among IC50 values were performed by the analysis of variance (ANOVA) followed by the Tukey test. Values of p ≤ 0.05 were considered statistically significant.

[2] = test system: Balb/c 3T3 cells; experiment: NRU assay (lysosomal activity), Balb/c 3T3; format: cell-based, mouse; details: for Lowest concentration with significant (p ≤ 0.05) inhibition of lysosomal activity (NRU): Balb/c 3T3, 72 h, vs negative control 0.1% DMSO
Procedure: as §1, §2, §3
(§6) The assay, based on the staining of living cells by neutral red, was performed according to the protocol described by Borenfreund and Puerner. After incubation, the medium containing the compound was removed and the cells were washed with PBS. Then, a 100 µL/well of NR solution (50 µg/mL) was added for 3 h. After that time, the cells were washed with PBS. The dye from viable cells was released by extraction with a mixture of acetic acid, ethanol, and water. After 10 min of shaking, the absorbance of the dissolved NR was measured at 540 nm in a microplate reader (LabSystems Multiskan RC, Thermo Fisher Scientific, Waltham, MA, USA) using a blank as a reference. Cytotoxicity was expressed as a percentage of the negative control (0.1% DMSO).
as §5

[3] = test system: Balb/c 3T3 cells; experiment: TPC assay (total protein content), Balb/c 3T3; format: cell-based, mouse; details: for Lowest concentration with significant (p ≤ 0.05) decrease of total protein content (TPC): Balb/c 3T3, 72 h, vs negative control 0.1% DMSO
Procedure: as §1, §2, §3
(§7) The assay was based upon staining total cellular protein (proliferation). After incubation, the medium containing the compound was removed and 100 µL of Coomassie Brilliant Blue R-250 dye were added to each well. The plate was shaken for 10 min. Then, the stain was removed and the cells were rinsed twice with 100 µL of washing solution (glacial acetic acid/ethanol/water). After that, a 100 µL portion of the desorbing solution (1 M potassium acetate) was added and plates were shaken again for 10 min. The absorbance was measured at 595 nm in a microplate reader (LabSystems Multiskan RC, Thermo Fisher Scientific, Waltham, MA, USA) using a blank as a reference. Cytotoxicity was expressed as a percentage of the negative control (0.1% DMSO).
as §5

[4] = test system: Balb/c 3T3 cells; experiment: Leakage LDH assay (cellular membrane integrity), Balb/c 3T3; format: cell-based, mouse; details: for Lowest concentration with significant (p ≤ 0.05) disintegration of the cellular membrane (LDH): Balb/c 3T3, 72 h, vs negative control 0.1% DMSO
Procedure: as §1, §2, §3
(§8) The integrity of the plasma membrane was assessed using the test of lactate dehydrogenase (LDH) release, which was monitored using the commercially available Cytotoxicity Detection Kit (LDH) (Roche Diagnostics, Warsaw, Poland). The medium (100 µL/well) without cells was transferred into the corresponding wells of an optically clear 96-well flat bottom microplate and a 100 µl reaction mixture was added to each well. Then, the plates were incubated for 30 min at room temperature in darkness. After that time, a 50 µL/well 1 M HCl was added to stop the reaction. The absorbance was measured at 492 nm in a microplate reader (LabSystems Multiskan RC, Thermo Fisher Scientific, Waltham, MA, USA) using a blank as a reference.
as §5

[5] = test system: HepG2 cells; experiment: MTT assay (mitochondrial activity), HepG2; format: cell-based, human; details: for Lowest concentration with significant (p ≤ 0.05) inhibition of mitochondrial activity (MTT): HepG2, 72 h, vs negative control 0.1% DMSO
Procedure: as §1, §2, §3, §4, §5

[6] = test system: HepG2 cells; experiment: NRU assay (lysosomal activity), HepG2; format: cell-based, human; details: for Lowest concentration with significant (p ≤ 0.05) inhibition of lysosomal activity (NRU): HepG2, 72 h, vs negative control 0.1% DMSO
Procedure: as §1, §2, §3, §6, §5

[7] = test system: HepG2 cells; experiment: TPC assay (total protein content), HepG2; format: cell-based, human; details: for Lowest concentration with significant (p ≤ 0.05) decrease of total protein content (TPC): HepG2, 72 h, vs negative control 0.1% DMSO
Procedure: as §1, §2, §3, §7, §5

[8] = test system: HepG2 cells; experiment: Leakage LDH assay (cellular membrane integrity), HepG2; format: cell-based, human; details: for Lowest concentration with significant (p ≤ 0.05) disintegration of the cellular membrane (LDH): HepG2, 72 h, vs negative control 0.1% DMSO
Procedure: as §1, §2, §3, §8, §5

[9] = Cytotoxicity over four assays in both cell lines; format: cell-based; details: mouse (Balb/c 3T3) and human (HepG2), Balb/c 3T3 clone A31 fibroblasts and HepG2 hepatoma cells, mostly greater than 50%, read-out: Viability of the cells at the highest concentrations used
Procedure: as §1
as §2, with “Single cell suspensions were prepared and adjusted to a density of 2 × 10^5 cells/mL (HepG2) and 5 × 10^4 cells/mL (Balb/c 3T3). The cell suspension was transferred to 96-well plates (100 µL/well) and incubated for 24 h before the exposure to the study compounds.” left out
The concentration ranges of compounds were chosen according to their solubility and their plasma level. […] Cytotoxicity was assessed after 72 h of exposure of the cells to the compounds. […]
The results of the tests were expressed as a mean ± SD. […] The IC50 values were calculated by GraphPad Prism 5 software (San Diego, CA, USA). […]

[10] = test system: murine melanoma (B16) cell line; set-up: method as in PMID 26828469; details: same observation as in this study; cited from earlier work
[11] = test system: 10T1/2 cell line; set-up: method as in PMID 26828469; details: same observation as in this study; cited from earlier work

SMILES	Lowest concentration with significant (p ≤ 0.05) inhibition of mitochondrial activity (MTT) [1]	IC50 ([1]; Mus musculus, BALB/c3T3, Balb/c 3T3, 72 h exposure, mean (n = 3) ± SEM, read-out: Inhibitory concentration IC50, MTT)	Lowest concentration with significant (p ≤ 0.05) inhibition of lysosomal activity (NRU) [2]	IC50 ([2]; Mus musculus, BALB/c3T3, Balb/c 3T3, 72 h exposure, mean (n = 3) ± SEM, read-out: Inhibitory concentration IC50, NRU)	Lowest concentration with significant (p ≤ 0.05) decrease of total protein content (TPC) [3]	IC50 ([3]; Mus musculus, BALB/c3T3, Balb/c 3T3, 72 h exposure, mean (n = 3) ± SEM, read-out: Inhibitory concentration IC50, TPC)	IC50 ([4]; Mus musculus, BALB/c3T3, Balb/c 3T3, 72 h exposure, mean (n = 3) ± SEM, read-out: Inhibitory concentration IC50, LDH)	IC50 ([5]; Homo sapiens, HepG2, 72 h exposure, mean (n = 3) ± SEM, read-out: Inhibitory concentration IC50, MTT)	IC50 ([6]; Homo sapiens, HepG2, 72 h exposure, mean (n = 3) ± SEM, read-out: Inhibitory concentration IC50, NRU)	IC50 ([7]; Homo sapiens, HepG2, 72 h exposure, mean (n = 3) ± SEM, read-out: Inhibitory concentration IC50, TPC)	IC50 ([8]; Homo sapiens, HepG2, 72 h exposure, mean (n = 3) ± SEM, read-out: Inhibitory concentration IC50, LDH)	viability at 72 h [9]	Cytotoxicity in B16 cell line [10]	Cytotoxicity in 10T1/2 cell line [11]	Lowest concentration with significant (p ≤ 0.05) disintegration of the cellular membrane (LDH) [4]	Lowest concentration with significant (p ≤ 0.05) inhibition of mitochondrial activity (MTT) [5]	Lowest concentration with significant (p ≤ 0.05) inhibition of lysosomal activity (NRU) [6]	Lowest concentration with significant (p ≤ 0.05) decrease of total protein content (TPC) [7]	Lowest concentration with significant (p ≤ 0.05) disintegration of the cellular membrane (LDH) [8]
OCc1ccncc1 [4-hydroxymethylpyridine]	13.6 µM	> 227 µM	7.0 µM	> 227 µM	57 µM	> 227 µM	> 227 µM	> 227 µM	> 227 µM	> 227 µM	> 227 µM	> 50%	poorly cytotoxic	poorly cytotoxic					
Cc1ncc([N+](=O)[O-])n1CCO.Cc1ncc([N+](=O)[O-])n1CCO.O=[N+]([O-])[O-].[Ag+] [Silver(I) + metronidazole, [(Metronidazole)2AgNO3]]	0.74 µM		3.0 µM		3.0 µM										0.74 µM	6.0 µM	6.0 µM	3.0 µM	6.0 µM
O=[N+]([O-])[O-].OCc1ccncc1.OCc1ccncc1.[Ag+] [Silver(I) + 4-hydroxymethylpyridine, [(4-hydroxymethylpyridine)2Ag]NO3]	3.8 µM		0.98 µM		1.9 µM										0.98 µM	3.8 µM	3.8 µM	7.6 µM	3.8 µM
